Test: Case report: subject, under treatment for uneasiness, short temper and prolonged anger
Assay type: in vivo, human
Conditions: while taking welbutrin, before the butyrate
Text: A subject was under treatment for uneasiness, short temper and prolonged anger, and was taking welbutrin.

## CC(NC(C)(C)C)C(=O)c1cccc(Cl)c1 (stereo not shown) [welbutrin, 1-(3-chlorophenyl)-2-[(1,1-dimethylethyl)amino]-1-propanone]
  side effects suffered under prior treatment: stomach discomfort, memory deficiency and reduced clarity of thought

Source: patent US6498247B2, “Alkali or alkaline earth metal of n-butyric acid for treatment of cognitive and emotional conditions” (Pro-Health, Inc., priority 2000, dated 2002)
